Patent US6335451B1, “Five-membered heterocycles having biphenylsulfonyl substitution, with sulfonylcyanamide side chain, compositions containing them, and methods of using them” (Hoechst Aktiengesellschaft, priority 1997, dated 2002)

Key:
[1] = tested on: Na+-dependent Cl−/HCO3− exchanger (NCBE); experiment: Inhibition of the Na+-dependent Cl−/HCO3− exchanger (NCBE) in human endothelial cells (pHi recovery, BCECF fluorescence, FLIPR); format: cell-based; conditions: inhibitor concentration of 10 μM; human endothelial cells (ECV-304); relative to 100% and 0% pHi recovery controls, 50 μM HOE 642 present
Procedure: Inhibition of the Na^+-dependent Cl^−/HCO3^− exchanger (NCBE) in human endothelial cells
Human endothelial cells (ECV-304) were detached from culture bottles with the aid of trypsin/EDTA buffer (0.05/0.02% in phosphate buffer) and, after centrifugation (100 g, 5 min), taken up in a buffered salt solution (mmol/l: 115 NaCl, 20 NH4Cl, 5 KCl, 1 CaCl2, 1 MgSO4, 20 N-(2-hydroxyethyl)piperazine-N′-2-ethanesulfonic acid (HEPES), 5 glucose and 1 g/l of bovine serum albumin; pH 7.4). This cell suspension was incubated at 37° C. for 20 min with 5 μM BCECF-acetoxymethyl ester. The cells were then washed and resuspended in a sodium- and bicarbonate-free buffer solution (mmol/l: 5 HEPES, 133.8 choline chloride, 4.7 KCl, 1.25 MgCl2, 0.97 K2HPO4, 0.23 KH2PO4, 5 glucose; pH 7.4).
For subsequent fluorescence measurement in an FLIPR (Fluorescent Imaging Plate Reader) 100 μl of this cell suspension having 20,000 cells in each case were pipetted per well into a 96-well microtiter plate and this microtiter plate was centrifuged (100 g, 5 min).
In the FLIPR, 100 μl of buffer solution in each case were then removed from a further pretreated microtiter plate and pipetted into each of the 96 wells of the measurement plate. A bicarbonate- and sodium-containing buffer solution (mmol/l: 5 HEPES, 93.8 NaCl, 40 NaHCO3, 4.7 KCl, 1.25 CaCl2, 1.25 MgCl2, 0.97 Na2HPO4, 0.23 NaH2PO4, 5 glucose; pH 7.4) which contained 50 μM HOE 642 was used for a 100% control, i.e. a recovery of the intracellular pH (pHi) via the NCBE. For a 0% control, i.e. no pHi recovery at all, the bicarbonate-free, sodium-containing buffer solution (mmol/l: 5 HEPES, 133.8 NaCl, 4.7 KCl, 1.25 CaCl2, 1.25 MgCl2, 0.97 Na2HPO4, 0.23 NaH2PO4, 5 glucose; pH 7.4) was employed, to which 50 μM HOE 642 were likewise added. The compounds according to the invention were added to the sodium- and bicarbonate-containing solution in various concentrations.
After addition of the buffer solutions to the dye-loaded, acidified cells in the measurement plate, the rise in the fluorescence intensity which corresponded to a rise in the pHi in each well of the microtiter plate was determined. The kinetics were in this case recorded at 35° C. for a period of 2 minutes.
The increase in the fluorescence intensities for different concentrations of the compounds according to the invention was related to the two controls and from this inhibitory action of the substances was determined.
Residual Activity of the NCBE at an Inhibitor Concentration of 10 μM

CCOC(=O)c1c(SC)nc(C(C)C)n1Cc1ccc(-c2ccccc2S(=O)(=O)NC#N)cc1 [Example 19, Ethyl 2-isopropyl-5-methylsulfanyl-3-(2′-cyanoaminosulfonylbiphenyl-4-ylmethyl)-3H-imidazole-4-carboxylate]
Residual activity in % (residual activity of the NCBE) [1]: 21.5% | melting point: 276 °C (dec.)

CCOC(=O)c1c(SC)nc(C2CC2)n1Cc1ccc(-c2ccccc2S(=O)(=O)NC#N)cc1 [Example 10, Ethyl 2-cyclopropyl-5-methylsulfanyl-3-(2′-cyanoaminosulfonylbiphenyl-4-ylmethyl)-3H-imidazole-4-carboxylate]
Residual activity in % (residual activity of the NCBE) [1]: 21.6% | melting point: > 260 °C

CCCCc1nc(SC)c(C(=O)OC(C)C)n1Cc1ccc(-c2ccccc2S(=O)(=O)NC#N)cc1 [Example 20, Isopropyl 2-butyl-5-methylsulfanyl-3-(2′-cyanoaminosulfonylbiphenyl-4-ylmethyl)-3H-imidazole-4-carboxylate]
Residual activity in % (residual activity of the NCBE) [1]: 19.5% | melting point: 113 °C (dec.)

CCCCc1nc(SC)c(C(=O)OCC)n1Cc1cccc(-c2cc(S(=O)(=O)NC#N)ccc2C)c1 [Example 24, Ethyl 2-butyl-3-(2′-methyl-5′-cyanoaminosulfonylbiphenyl-3-yl-methyl)-5-methylsulfanyl-3H-imidazole-4-carboxylate]
Residual activity in % (residual activity of the NCBE) [1]: 29.2% | melting point: 160 °C (dec.)

N#CNS(=O)(=O)c1ccccc1-c1ccc(Cn2c(-c3c(F)cccc3F)nc(Cl)c2C=O)cc1 [Example 38, 4′-[4-Chloro-5-formyl-2-(2,6-difluorphenyl)-imidazole-1-ylmethyl]-biphenyl-2-sulfonylcyanamide]
Residual activity in % (residual activity of the NCBE) [1]: 8.6% | melting point: 164 to 178 °C

CCCCc1nc(SC)c(C(=O)OCC)n1Cc1ccc(-c2ccccc2S(=O)(=O)NC#N)cc1 [Example 1, Ethyl 2-butyl-5-methylsulfanyl-3-(2′-cyanoaminosulfonyl-biphenyl-4-ylmethyl)-3H-imidazole-4-carboxylate]
Residual activity in % (residual activity of the NCBE) [1]: 17.7% | melting point: 111 °C (dec.)

CCCCc1ncc(C(=O)OCC)n1Cc1ccc(-c2ccccc2S(=O)(=O)NC#N)cc1 [Example 13, Ethyl 2-butyl-3-(2′-cyanoaminosulfonylbiphenyl-4-ylmethyl)-3H-imidazole-4-carboxylate]
Residual activity in % (residual activity of the NCBE) [1]: 89.5% | melting point: 121 °C (dec.)

CCCCc1nc(SC)c(C(=O)OCC)n1Cc1ccc(-c2cc(S(=O)(=O)NC#N)ccc2C)cc1 [Example 21, Ethyl 2-butyl-3-(2′-methyl-5′-cyanoaminosulfonylbiphenyl-4-yl-methyl)-5-methylsulfanyl-3H-imidazole-4-carboxylate]
Residual activity in % (residual activity of the NCBE) [1]: 42.6% | melting point: 127 °C (dec.)

CCOC(=O)c1c(SC)nc(CC)n1Cc1ccc(-c2ccccc2S(=O)(=O)NC#N)cc1 [Example 17, Ethyl 2-ethyl-5-methylsulfanyl-3-(2′-cyanoaminosulfonylbiphenyl-4-ylmethyl)-3H-imidazole-4-carboxylate]
Residual activity in % (residual activity of the NCBE) [1]: 39.1% | melting point: 94 °C (dec.)

CCCCc1nc(Cl)c(C=O)n1Cc1ccc(-c2ccccc2S(=O)(=O)NC#N)cc1 [Example 15, 4′-(2-Butyl-4-chloro-5-formylimidazol-1-ylmethyl)biphenyl-2-sulfonylcyanamide]
Residual activity in % (residual activity of the NCBE) [1]: 55.7% | melting point: 135 °C (dec.)

CCCCc1nc(SC)c(C(=O)OCC)n1Cc1ccccc1-c1ccc(S(=O)(=O)NC#N)cc1 [Example 9, Ethyl 2-butyl-5-methylsulfanyl-3-(4′-cyanoaminosulfonyl-biphenyl-2-ylmethyl)-3H-imidazole-4-carboxylate]
Residual activity in % (residual activity of the NCBE) [1]: 31.6% | melting point: 116 °C (dec.)

CCCCc1nc(SC)c(C(=O)OCC)n1Cc1ccccc1-c1cccc(S(=O)(=O)NC#N)c1 [Example 8, Ethyl 2-butyl-5-methylsulfanyl-3-(3′-cyanoaminosulfonyl-biphenyl-2-ylmethyl)-3H-imidazole-4-carboxylate]
Residual activity in % (residual activity of the NCBE) [1]: 60.8% | melting point: 108 °C (dec.)
